Where “and” joins values, the source holds several entries; their conditions need not be identical. Equal entries are not always repeated.
Experiments:
[1] = tested on: Itching (Atopic Dermatitis); test: Clinical Study 2: itching by patient VAS in atopic dermatitis patients; assay type: in vivo, human
Excerpt: 125 Patients took part in a comparative, randomized, single (observer) blind, controlled clinical study. […] The age difference for both groups of males and females was statistically insignificant t=0.551, P=0.582 and t=1.307, P=0.194 respectively. […] The similar distribution allowed for a matching analysis with no statistical difference where Chi-square test=0.001, P=0.976. Due to the subjective nature of this symptom, all the patients were given VAS (Visual analogue scale graded 0=no itch to 10=severe itch) to complete at home twice daily, once in the morning and once in the evening, on the fifth, sixth and seventh day, after allowing for a washout period of four days. Table IX clarify the mean VAS score in both groups after treatment with their respective intervention. The N1 group has experienced a significant decline in their VAS score throughout the 5th, 6th and 7th days where paired t test for the decline in the 5th day=6.96, P=0.001 and for the 6th day=6.74, P=0.001 and for the 7th day=2.76, p=0.006.

[2] = tested on: Atopic Dermatitis; test: Clinical Study 2: randomized single blind comparison of N1 and Hydrocortisone 1% in atopic dermatitis, SASSAD severity score; assay type: in vivo, human
Excerpt: The patients taking part in the clinical studies were given free kits of the aerosol apparatus of the present invention and a set of instructions detailing method of use as follows: 1) Remove clothing of the area of application. 2) If the face needs to be treated, the eyes should be closed or masked (for babies or small children) 3) Hold the apparatus at a distance of 10 cm-20 cm approximately. 4) Press the apparatus's actuator to release the water-based particles. 5) Apply for a few seconds or as needed then leave the treated areas to dry untouched. Repeat as many times as needed until the symptoms ease. 6) In chronic cases and in order to speed the healing process, apply a daily regimen of four times per day, once before bedtime until symptoms reduce or disappear.
125 Patients took part in a comparative, randomized, single (observer) blind, controlled clinical study.
The scoring system used to evaluate the results of both groups is “Six area, six sign atopic dermatitis (SASSAD) severity score [Jones J B. Six area, six sign atopic dermatitis (SASSAD) severity score: A simple system for monitoring disease activity in atopic dermatitis. Br J Dermatol. 1996; 135 (Suppl 48): 25-30] […] The signs are: Dryness, lichenification, cracking, erythema, exudation and excoriation. the six areas of the body are head, neck, trunk, arms, hands, legs and feet. The severity of the lesions are assessed as 0, 1, 2 and 3 for no lesion, mild, moderate and severe lesions respectively for each sign in each body area resulting in a score of maximum 18 for each sign. The six signs were evaluated objectively by the investigating physicians. Itching being a subjective symptom was evaluated by the patient.
The atopic dermatitis diagnosis was based on [Hanifin J. M., Rajka G. Diagnostic Features of Atopic Dermatitis, Acta Derma (Stock) Suppl. 92:44-47, 1980].

[3] = Base score, listed as hydrocortisone
[4] = Week 1, listed as hydrocortisone

Compound: C[C@]12CCC(=O)C=C1CC[C@@H]1[C@@H]2[C@@H](O)C[C@@]2(C)[C@H]1CC[C@]2(O)C(=O)CO [Hydrocortisone]
- itch free duration, mean ([1]; 3 day self-monitoring period): 1.76 ± 1.21 h
- Mean itch VAS (0=no itch to 10=severe itch) ([1]; Day 5 Evening): 7.69
- Mean itch VAS (0=no itch to 10=severe itch) ([1]; Day 5 Morning): 8.01
- Mean itch VAS (0=no itch to 10=severe itch) ([1]; Day 5 Morning, listed as hydrocortisone): 8.01±1.65
- Mean itch VAS (0=no itch to 10=severe itch) ([1]; Day 6 Evening): 7.06
- Mean itch VAS (0=no itch to 10=severe itch) ([1]; Day 6 Morning): 7.17
- Mean itch VAS (0=no itch to 10=severe itch) ([1]; Day 7 Evening): 6.58
- Mean itch VAS (0=no itch to 10=severe itch) ([1]; Day 7 Evening, listed as hydrocortisone): 6.58±1.97
- Mean itch VAS (0=no itch to 10=severe itch) ([1]; Day 7 Morning): 6.63
- Mean itch VAS (0=no itch to 10=severe itch) ([1]; Day 7 Morning, listed as hydrocortisone): 6.63±1.93
- Mean Cracking score ([2]; Base score): 1.17
- Mean Dryness score ([2]; Base score): 4.32
- Mean Erythema score ([2]; Base score): 3.6
- Mean Excoriation score ([2]; Base score): 2.7
- Mean Exudation score ([2]; Base score): 3.18
- Mean Lichenification score ([2]; Base score): 2.44
- Mean Erythema score [2, 3]: 3.6±2.5
- Mean Lichenification score [2, 3]: 2.44±1.7
- Mean Dryness score ([2]; Week 1): 2.9
- Mean Erythema score ([2]; Week 1): 2.9
- Mean Excoriation score ([2]; Week 1): 1.97
- Mean Exudation score ([2]; Week 1): 2.5
- Mean Lichenification score ([2]; Week 1): 1.55
- Mean Exudation score [2, 4]: 2.5±2.4
- Mean Lichenification score [2, 4]: 1.55±1.9
- Mean Dryness score ([2]; Week 2): 2.13
- Mean Erythema score ([2]; Week 2): 1.8
- Mean Excoriation score ([2]; Week 2): 1.6
- Mean Lichenification score ([2]; Week 2): .82
- Mean Lichenification score ([2]; Week 2, listed as hydrocortisone): 0.82±1.3
- group cleared of atopic dermatitis (SASSAD score of 0 or 1) ([2]; after Week One): 14%
- group cleared of Atopic dermatitis ([2]; after two weeks treatment, total): 11%
- patients cleared from atopic dermatitis (SASSAD score=0) ([2]; after week one): 9 patients
- patients cleared from atopic dermatitis (SASSAD score=0), percent of group ([2]; after week one): 3.81%
- Mean SASSAD score ([2]; at baseline, before treatment): 17.51±7.37 and 17.52 and 17.5
- Mean SASSAD score ([2]; at baseline, before treatment, listed as hydrocortisone): 17.52±7.37
- group cleared of atopic dermatitis (SASSAD score of 0 or 1) ([2]; at the end of Week Two): 6.3%
- Mean SASSAD score ([2]; end of week one): 12.82±8.34 and 12.52±8.34 and 12.82 and 12.5
- Mean SASSAD score ([2]; end of week two, patients who continued treatment): 8.4±6 and 8.4
- Mean SASSAD score ([2]; end of week two, patients who continued treatment, listed as hydrocortisone): 8.4±6

Source: patent US20070154405A1, “AEROSOL APPARATUS CONTAINING A COMPOSITION FOR APPLYING SIMULTANEOUSLY SEVERAL TOPICAL STIMULI” (priority 2005, published 2007)
